Common to all, as to experiment: combination Emax (second highest fraction inhibited in the dose matrix, 72 h); higher = more inhibition; extreme values may be limits of the assay
Assay [1] has as its system C-4-I (Cervical Carcinoma). The gist of the method:
(§1)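 After 24 hours at 37°C and 5% CO2 in 1536-well plates, cells in DMEM/F12 or RPMI plus 10% FBS received two-drug dose matrices for 72 hours. Viability came from CellTiter-Glo 2.0 luminescence and was scaled as inhibition, anchored at 0 by vehicle wells and at 1 by blank wells. Combination Emax is taken as the second-highest inhibition in the matrix, and Bliss excess as the observed combination effect less EA + EB − EA·EB, with EA and EB the single-agent effects.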

Assay [2] concerns EFM-19 (Breast Carcinoma). An outline of the steps: as §1
The subject of the next assay is D-263MG (Glioblastoma). An outline of the steps: as §1
Assay [3] deals with SU8686 (Pancreatic Carcinoma). The gist of the method:
as §1

The subject of assay [4] is NCI-H727 (Other Solid Carcinomas). The gist of the method: as §1
Assay [5] deals with Hs-766T (Pancreatic Carcinoma). The gist of the method: as §1
Assay [6] has as its system HOP-62 (Lung Adenocarcinoma). The gist of the method:
as §1

The subject of the next assay is ACHN (Kidney Carcinoma). An outline of the steps: as §1
The test system of assay [7] is Ca9-22 (Head and Neck Carcinoma). The gist of the method:
as §1

Assay [8] relates to VA-ES-BJ (Other Solid Carcinomas). An outline of the steps:
as §1

The subject of assay [9] is PANC-04-03 (Pancreatic Carcinoma). The gist of the method: as §1
Assay [10] concerns NEC8 (Other Solid Carcinomas). An outline of the steps:
as §1

Assay [11] deals with KYSE-450 (Esophageal Squamous Cell Carcinoma). An outline of the steps: as §1
The subject of a further assay is TGW (Neuroblastoma). The gist of the method:
as §1

For assay [12], the system named is OSC-20 (Oral Cavity Carcinoma). The gist of the method:
as §1

Assay [13] concerns MIA-PaCa-2 (Pancreatic Carcinoma). The gist of the method: as §1
Another assay has as its system NB69 (Neuroblastoma). The gist of the method:
as §1

Assay [14] deals with BT-549 (Breast Carcinoma). The gist of the method: as §1
Assay [15] has as its system RF-48 (B-Cell Non-Hodgkin's Lymphoma). The gist of the method:
as §1

The test system of another assay is UACC-62 (Melanoma). An outline of the steps: as §1

Each structure is given as a SMILES string.

We go through seven molecules from the supplement of paper PMC11061612.

As to `C=CCn1c(=O)c2cnc(Nc3ccc(N4CCN(C)CC4)cc3)nc2n1-c1cccc(C(C)(C)O)n1` [AZD1775] + O=C(c1cc(Cc2n[nH]c(=O)c3ccccc23)ccc1F)N1CCN(C(=O)C2CC2)CC1 [Olaparib] (first compound max 1 µM, partner max 10 µM), the “combination Emax” value in assay [1] was 0.792; in assay [2], 0.639; in the assay on D-263MG (Glioblastoma), 0.447; in assay [3] it was 0.182; in assay [4], 0.368; in [5] it was 0.473. In addition, the “combination Emax” value in assay [6] came out at 0.274; in the assay on ACHN (Kidney Carcinoma), 0.907; in assay [7], 0.88; in assay [8] it was 0.307; in [9] it was 0.495; in assay [10], 0.284. In addition, the “combination Emax” value in [11] is 0.687; with TGW (Neuroblastoma) it was 0.821; in assay [12], 0.289; in assay [13], 0.737; with NB69 (Neuroblastoma), 0.893; in [14], 0.551. In addition, the “combination Emax” value is 0.651 in [15] and 0.468 with UACC-62 (Melanoma).

Consider `CCN(CCO)CCCOc1ccc2c(Nc3cc(CC(=O)Nc4cccc(F)c4)[nH]n3)ncnc2c1` [AZD2811] + C=CCn1c(=O)c2cnc(Nc3ccc(N4CCN(C)CC4)cc3)nc2n1-c1cccc(C(C)(C)O)n1 [AZD1775] (first compound max 1 µM, partner max 1 µM), for which the “combination Emax” value is 0.771 in assay [1]; 0.467 in assay [2]; 0.51 in the assay with D-263MG (Glioblastoma); 0.177 in [3]; 0.311 in [4]; 0.346 in [5]. The “combination Emax” value in assay [6] was 0.161; in the assay with ACHN (Kidney Carcinoma), 0.999; in [7], 0.771; in assay [8], 0.356; in assay [9], 0.445; in [10] it was 0.329. Also, the “combination Emax” value in assay [11] is 0.61; with TGW (Neuroblastoma), 0.761; in [12] it was 0.369; in [13], 0.727; in the assay on NB69 (Neuroblastoma), 0.885; in assay [14], 0.62. For the same molecule, the “combination Emax” value was 0.522 in assay [15] and 0.391 in the assay on UACC-62 (Melanoma).

`CCN(CCO)CCCOc1ccc2c(Nc3cc(CC(=O)Nc4cccc(F)c4)[nH]n3)ncnc2c1` [AZD2811] + C[C@@H]1COCCN1C2=NC(=NC(=C2)C3(CC3)[S@](=N)(=O)C)C4=C5C=CNC5=NC=C4 [AZD6738] (first compound max 1 µM, 7x7, partner max 10 µM): the “combination Emax” value in assay [1] turned out to be 0.841; in assay [2], 0.355; in the assay on D-263MG (Glioblastoma), 0.619; in [3], 0.248; in assay [4], 0.559; in assay [5], 0.547. Further, the “combination Emax” value in assay [6] was determined as 0.436; with ACHN (Kidney Carcinoma) it was 0.905; in assay [7] it was 0.903; in assay [8], 0.696; in assay [9] it was 0.545; in [10], 0.649. The “combination Emax” value in [11] was determined as 0.63; in the assay with TGW (Neuroblastoma), 0.706; in [12], 0.449; in [13], 0.644; in the assay on NB69 (Neuroblastoma), 0.815; in assay [14] it was 0.487. For the same molecule, the “combination Emax” value in [15] was 0.462; with UACC-62 (Melanoma) it was 0.519.

Turning to `CCN(CCO)CCCOc1ccc2c(Nc3cc(CC(=O)Nc4cccc(F)c4)[nH]n3)ncnc2c1` [AZD2811] + O=C(c1cc(Cc2n[nH]c(=O)c3ccccc23)ccc1F)N1CCN(C(=O)C2CC2)CC1 [Olaparib] (first compound max 1 µM, 7x7, partner max 10 µM), the “combination Emax” value in assay [1] was 0.303; in [2], 0.322; in the assay on D-263MG (Glioblastoma), 0.418; in [3], 0.145; in [4], 0.346; in assay [5], 0.186. In addition, the “combination Emax” value was determined as 0.155 in assay [6]; 0.211 with ACHN (Kidney Carcinoma); 0.195 in assay [7]; 0.251 in [8]; 0.227 in assay [9]; 0.13 in assay [10]. Moreover, the “combination Emax” value in [11] amounted to 0.33; in the assay on TGW (Neuroblastoma), 0.532; in assay [12], 0.382; in [13], 0.469; with NB69 (Neuroblastoma), 0.659; in assay [14] it was 0.244. The “combination Emax” value turned out to be 0.294 in assay [15] and 0.258 in the assay on UACC-62 (Melanoma).

In the case of `CN(CCO)CC[C@H](CSc1ccccc1)Nc1ccc(S(=O)(=O)NC(=O)c2ccc(N3CCC([C@@H](O)c4ccccc4-c4ccc(Cl)cc4)CC3)cc2)cc1S(=O)(=O)C(F)(F)F` [AZD4320] + CN(C)CCCOc1ccc(-c2ccc3ncc4c(c3c2)n(C2CCOCC2)c(=O)n4C)cn1 [AZD0156] (first compound max 1 µM, 7x7, partner max 1 µM), the “combination Emax” value is 0.145 in [1]; 0.797 in assay [2]; 0.0929 in the assay on D-263MG (Glioblastoma); 0.0423 in [3]; 0.214 in assay [4]; 0.21 in assay [5]. The “combination Emax” value in assay [6] stood at 0.194; in the assay on ACHN (Kidney Carcinoma) it was 0.125; in assay [7], 0.0929; in assay [8] it was 0.164; in assay [9] it was 0.192; in assay [10], 0.203. The “combination Emax” value in [11] turned out to be 0.0751; in the assay on TGW (Neuroblastoma) it was 0.963; in assay [12] it was 0.106; in [13], 0.141; in the assay with NB69 (Neuroblastoma), 0.757; in [14], 0.227. Besides, the “combination Emax” value in [15] amounted to 0.773; in the assay on UACC-62 (Melanoma) it was 0.182.

On to `COc1nnc2ccc(N3CCC(c4ccc(OCCN5CCN(C)C(=O)[C@H]5C)cc4)CC3)nn12` [AZD5153] + C=CCn1c(=O)c2cnc(Nc3ccc(N4CCN(C)CC4)cc3)nc2n1-c1cccc(C(C)(C)O)n1 [AZD1775] (first compound max 1 µM, partner max 1 µM), for which the “combination Emax” value in assay [1] stood at 0.838; in assay [2], 0.573; with D-263MG (Glioblastoma) it was 0.34; in assay [3], 0.171; in assay [4], 0.431; in assay [5], 0.448. Further, the “combination Emax” value in assay [6] is 0.631; in the assay on ACHN (Kidney Carcinoma), 0.835; in assay [7], 0.672; in [8] it was 0.724; in assay [9], 0.484; in assay [10] it was 0.913. Moreover, the “combination Emax” value in assay [11] stood at 0.519; with TGW (Neuroblastoma) it was 0.674; in assay [12] it was 0.284; in [13], 0.882; in the assay with NB69 (Neuroblastoma) it was 0.99; in assay [14], 0.732. In addition, the “combination Emax” value in [15] is 0.558; with UACC-62 (Melanoma), 0.577.

With `COc1nnc2ccc(N3CCC(c4ccc(OCCN5CCN(C)C(=O)[C@H]5C)cc4)CC3)nn12` [AZD5153] + CC1(C)CCC(CN2CCN(c3ccc(C(=O)NS(=O)(=O)c4ccc(NCC5CCOCC5)c([N+](=O)[O-])c4)c(Oc4cnc5[nH]ccc5c4)c3)CC2)=C(c2ccc(Cl)cc2)C1 [Venetoclax] (first compound max 1 µM, 7x7, partner max 1 µM), the “combination Emax” value was determined as 0.514 in [1]; 0.359 in assay [2]; 0.369 with D-263MG (Glioblastoma); 0.0794 in assay [3]; 0.34 in assay [4]; 0.444 in assay [5]. The “combination Emax” value came to 0.557 in assay [6]; 0.535 in the assay on ACHN (Kidney Carcinoma); 0.66 in assay [7]; 0.5 in [8]; 0.445 in assay [9]; 0.831 in assay [10]. Further, the “combination Emax” value in assay [11] came to 0.332; in the assay on TGW (Neuroblastoma), 0.798; in [12], 0.129; in assay [13], 0.878; with NB69 (Neuroblastoma), 0.952; in assay [14], 0.518. The figures for the “combination Emax” value (in [15]; in the assay with UACC-62 (Melanoma)) were 0.53 and 0.605, respectively.
